One assay deals with Acetylcholinesterase (Homo sapiens, UniProt P22303). Nature of the assay: Acetylcholinesterase Assay. The settings on record: pH 7.7. On the procedure: The AChE inhibition activity was determined according to the Ellman's method with slight modifications. Total volume of the reaction mixture was 100 µL. It contained 60 µL Na2HPO4 buffer with concentration of 50 mM and pH 7.7. Ten µL test compound (0.5 mM well-1) was added, followed by the addition of 10 µL (0.005 unit well-1) enzyme. The contents were mixed and preread at 405 nm. Then contents were pre-incubated for 10 min at 37 °C. The reaction was initiated by the addition of 10 µL of 0.5 mM well-1 substrate (acetylthiocholine iodide), followed by the addition of 10 µL DTNB (0.5 mM well-1). After 30 min of incubation at 37 °C, absorbance was measured at 405 nm. Synergy HT (BioTek, USA) 96-well plate reader was used in all experiments. All experiments were carried out with their respective controls in triplicate.
Sequence of Acetylcholinesterase (P22303 whole entry): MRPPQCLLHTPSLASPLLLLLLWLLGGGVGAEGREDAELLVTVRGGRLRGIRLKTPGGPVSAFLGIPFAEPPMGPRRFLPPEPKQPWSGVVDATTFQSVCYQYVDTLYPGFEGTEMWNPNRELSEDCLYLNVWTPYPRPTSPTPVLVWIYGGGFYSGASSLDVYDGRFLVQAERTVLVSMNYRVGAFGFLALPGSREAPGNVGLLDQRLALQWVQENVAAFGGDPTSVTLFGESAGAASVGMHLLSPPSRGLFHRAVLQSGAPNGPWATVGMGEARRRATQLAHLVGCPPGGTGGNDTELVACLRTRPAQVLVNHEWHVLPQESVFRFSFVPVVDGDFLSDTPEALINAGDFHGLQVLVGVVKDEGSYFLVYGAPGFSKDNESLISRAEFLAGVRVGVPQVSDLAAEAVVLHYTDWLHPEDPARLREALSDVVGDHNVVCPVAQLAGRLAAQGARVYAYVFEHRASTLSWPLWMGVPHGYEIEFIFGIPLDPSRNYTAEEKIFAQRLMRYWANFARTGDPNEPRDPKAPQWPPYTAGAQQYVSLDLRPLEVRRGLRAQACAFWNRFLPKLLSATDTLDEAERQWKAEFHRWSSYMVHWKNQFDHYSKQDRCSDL

In another assay the target is Cholinesterase (Homo sapiens, UniProt P06276). Nature of the assay: Butyrylcholinesterase Assay. The settings on record: pH 7.7. On the procedure: The butyrylcholinesterase (BChE) inhibition activity was determined according to the Ellman's method with minor modifications. Total volume of the reaction mixture was 100 µL containing 60 µL, Na2HPO4 buffer, 50 mM and pH 7.7. Ten µL test compound 0.5 mM well-1, followed by the addition of 10 µL (0.5 unit well-1)BChE. […] The reaction was initiated by the addition of 10 µL of 0.5 mM well-1 substrate (butyrylthiocholine bromide) followed by the addition of 10 µL DTNB, 0.5 mM well-1. […] Synergy HT (BioTek, USA) 96-well plate reader was used in all experiments. All experiments were carried out with their respective controls in triplicate.
Sequence of Cholinesterase (P06276 whole entry): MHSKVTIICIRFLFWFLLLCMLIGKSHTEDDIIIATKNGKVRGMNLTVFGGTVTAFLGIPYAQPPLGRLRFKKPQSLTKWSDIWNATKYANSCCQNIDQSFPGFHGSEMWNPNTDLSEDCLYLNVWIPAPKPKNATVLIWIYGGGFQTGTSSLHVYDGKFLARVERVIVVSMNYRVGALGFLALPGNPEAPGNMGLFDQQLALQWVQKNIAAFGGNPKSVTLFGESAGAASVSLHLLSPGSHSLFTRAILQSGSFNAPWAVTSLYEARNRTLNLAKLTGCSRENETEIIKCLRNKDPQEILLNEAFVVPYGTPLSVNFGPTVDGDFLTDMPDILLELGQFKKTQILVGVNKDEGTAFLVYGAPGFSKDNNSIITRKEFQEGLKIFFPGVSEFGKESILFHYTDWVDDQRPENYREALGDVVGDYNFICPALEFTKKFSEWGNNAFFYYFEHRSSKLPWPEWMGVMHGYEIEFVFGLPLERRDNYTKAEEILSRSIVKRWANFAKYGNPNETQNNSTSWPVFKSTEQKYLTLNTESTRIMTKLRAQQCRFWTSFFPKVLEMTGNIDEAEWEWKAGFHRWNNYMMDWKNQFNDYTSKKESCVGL

In the case of `CCCCN(c1ccc(-c2ccc(N(CCCC)S(=O)(=O)c3ccccc3)cc2)cc1)S(=O)(=O)c1ccccc1` [N,N'-(biphenyl-4,4'-diyl)bis(N-butylbenzenesulfonamide) (3c)], the IC50 on Acetylcholinesterase amounted to 8.41 µM; on Cholinesterase, 125 µM. For `CC(=O)N(c1ccc(-c2ccc(N(C(C)=O)S(=O)(=O)c3ccccc3)c(C)c2)cc1C)S(=O)(=O)c1ccccc1` [N,N'-(3,3'-dimethylbiphenyl-4,4'-diyl)bis(N-(phenylsulfonyl)acetamide) (3i)], the half-maximal inhibitory concentration (IC50) on Acetylcholinesterase is 96.3 µM.

As to `O=S(=O)(Nc1ccc(-c2ccc(NS(=O)(=O)c3ccccc3)cc2)cc1)c1ccccc1` [N,N'-(biphenyl-4,4'-diyl)dibenzenesulfonamide (2a)], the IC50 came to 42.3 µM on Acetylcholinesterase and 203 µM on Cholinesterase.

In the case of `CCCCCCN(c1ccc(-c2ccc(N(CCCCCC)S(=O)(=O)c3ccccc3)c(C)c2)cc1C)S(=O)(=O)c1ccccc1` [N,N'-(3,3'-dimethylbiphenyl-4,4'-diyl)bis(N-hexylbenzenesulfonamide) (3m)], the IC50 at Acetylcholinesterase stood at 49.6 µM. As to `CC(=O)N(c1ccc(-c2ccc(N(C(C)=O)S(=O)(=O)c3ccccc3)cc2)cc1)S(=O)(=O)c1ccccc1` [N,N'-(biphenyl-4,4'-diyl)bis(N-(phenylsulfonyl)acetamide) (3a)], the 50% inhibitory concentration (IC50) on Acetylcholinesterase stood at 103 µM; at Cholinesterase, 156 µM. `CC(C)N(c1ccc(-c2ccc(N(C(C)C)S(=O)(=O)c3ccccc3)cc2)cc1)S(=O)(=O)c1ccccc1` [N,N'-(biphenyl-4,4'-diyl)bis(N-isopropylbenzenesulfonamide) (3b)]: the half-inhibitory concentration (IC50) at Acetylcholinesterase turned out to be 73.2 µM. Turning to `O=S(=O)(c1ccccc1)N(Cc1ccccc1)c1ccc(-c2ccc(N(Cc3ccccc3)S(=O)(=O)c3ccccc3)cc2)cc1` [N,N'-(biphenyl-4,4'-diyl)bis(N-benzylbenzenesulfonamide) (3h)], the IC50 is 61.6 µM on Acetylcholinesterase and 35.8 µM on Cholinesterase. As for `CCCCCCN(c1ccc(-c2ccc(N(CCCCCC)S(=O)(=O)c3ccccc3)cc2)cc1)S(=O)(=O)c1ccccc1` [N,N'-(biphenyl-4,4'-diyl)bis(N-hexylbenzenesulfonamide) (3e)], the IC50 at Acetylcholinesterase stood at 78.6 µM. Same read-out and setting: then `CCCCCN(c1ccc(-c2ccc(N(CCCCC)S(=O)(=O)c3ccccc3)cc2)cc1)S(=O)(=O)c1ccccc1` [N,N'-(biphenyl-4,4'-diyl)bis(N-pentylbenzenesulfonamide) (3d)], with 79.6 µM; and `Cc1cc(-c2ccc(N(C(C)C)S(=O)(=O)c3ccccc3)c(C)c2)ccc1N(C(C)C)S(=O)(=O)c1ccccc1` [N,N'-(3,3'-dimethylbiphenyl-4,4'-diyl)bis(N-isopropylbenzenesulfonamide) (3j)], with 101 µM; and `CCCCCCCN(c1ccc(-c2ccc(N(CCCCCCC)S(=O)(=O)c3ccccc3)cc2)cc1)S(=O)(=O)c1ccccc1` [N,N'-(biphenyl-4,4'-diyl)bis(N-heptylbenzenesulfonamide) (3f)], with 58.6 µM.

For `CCCCCCCCCCCCCCCCN(c1ccc(-c2ccc(N(CCCCCCCCCCCCCCCC)S(=O)(=O)c3ccccc3)c(C)c2)cc1C)S(=O)(=O)c1ccccc1` [N,N'-(3,3'-dimethylbiphenyl-4,4'-diyl)bis(N-hexadecylbenzenesulfonamide) (3o)], the IC50 stood at 2.45 µM at Acetylcholinesterase and 24.7 µM on Cholinesterase.

With `CCCCN(c1ccc(-c2ccc(N(CCCC)S(=O)(=O)c3ccccc3)c(C)c2)cc1C)S(=O)(=O)c1ccccc1` [N,N'-(3,3'-dimethylbiphenyl-4,4'-diyl)bis(N-butylbenzenesulfonamide) (3k)], the IC50 at Acetylcholinesterase amounted to 3.72 µM; on Cholinesterase, 20.3 µM. Taken in the same sequence, the figures for `CCCCCCCN(c1ccc(-c2ccc(N(CCCCCCC)S(=O)(=O)c3ccccc3)c(C)c2)cc1C)S(=O)(=O)c1ccccc1` [N,N'-(3,3'-dimethylbiphenyl-4,4'-diyl)bis(N-heptylbenzenesulfonamide) (3n)] were 43.2 µM and 48.7 µM.

For the compound `CCCCCCCCCCCCCCCCN(c1ccc(-c2ccc(N(CCCCCCCCCCCCCCCC)S(=O)(=O)c3ccccc3)cc2)cc1)S(=O)(=O)c1ccccc1` [N,N’-(biphenyl-4,4’-diyl)bis(N-hexadecylbenzenesulfonamide) (3g)], the IC50 on Acetylcholinesterase worked out at 4.63 µM; at Cholinesterase, 7.74 µM. In the case of `Cc1cc(-c2ccc(N(Cc3ccccc3)S(=O)(=O)c3ccccc3)c(C)c2)ccc1N(Cc1ccccc1)S(=O)(=O)c1ccccc1` [N,N'-(3,3'-dimethylbiphenyl-4,4'-diyl)bis(N-benzylbenzenesulfonamide) (3p)], the IC50 on Acetylcholinesterase was found to be 2.27 µM; on Cholinesterase, 31.3 µM. `CCCCCN(c1ccc(-c2ccc(N(CCCCC)S(=O)(=O)c3ccccc3)c(C)c2)cc1C)S(=O)(=O)c1ccccc1` [N,N'-(3,3'-dimethylbiphenyl-4,4'-diyl)bis(N-pentylbenzenesulfonamide) (3l)]: the IC50 on Acetylcholinesterase was found to be 51.2 µM. For the compound `Cc1cc(-c2ccc(NS(=O)(=O)c3ccccc3)c(C)c2)ccc1NS(=O)(=O)c1ccccc1` [N,N'-(3,3'-dimethylbiphenyl-4,4'-diyl)dibenzenesulfonamide (2b)], the IC50 at Acetylcholinesterase amounted to 123 µM.

These data come from BindingDB's records for doi:10.1016/j.bioorg.2015.11.002 (Government College University, 2016).
